Data: patent publication US10017527B2, “KLK4 inhibitors” (Universiteit Antwerpen, priority 2014, dated 2018)
pIC50: −log10 of the molar value.

What was measured:
KLK8 (human) = target: T1, KLK8 (human) (Homo sapiens, UniProt O60259); assay: KLK8 inhibition, fluorogenic substrate Boc-Val-Pro-Arg-AMC; type: biochemical; conditions: Tris buffer pH 8; read-out: IC50 KLK8
T1 construct: purchased Viktor Magdolen, TUMunich (TUM), supplied by an academic laboratory
T1 sequence (O60259 33-260): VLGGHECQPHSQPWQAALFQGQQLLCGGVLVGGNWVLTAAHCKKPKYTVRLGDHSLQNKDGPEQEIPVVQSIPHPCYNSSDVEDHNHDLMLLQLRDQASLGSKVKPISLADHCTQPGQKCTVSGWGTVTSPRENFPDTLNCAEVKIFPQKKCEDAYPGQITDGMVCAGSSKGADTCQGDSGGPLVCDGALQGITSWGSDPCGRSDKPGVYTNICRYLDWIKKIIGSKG
From the text: The IC50 values For KLK1, KLK2 and KLK8 were obtained in a similar way. For plasmin, tPA, thrombin, Fxa, HNE, Plasma kallikrein Chromogenic substrates were used (absorption: 405 nm). (KLK2, KLK4, KLK8 were supplied by Viktor Magdolen TUMunich (TUM)).

KLK4 = target: T2, KLK4 (Homo sapiens, UniProt Q9Y5K2); assay: KLK4 inactivation kinetics from progress curves (kobs vs inhibitor concentration); type: biochemical; conditions: for kapp KLK4: apparent second-order rate constant, substrate 250 μM; for Irreversible (KLK4): irreversible binding to KLK4, Yes/No
T2 construct: purchased Viktor Magdolen (TUM), supplied by an academic laboratory
Procedure, shortened: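 Enzyme was added at time zero to inhibitor plus substrate (250 μM final), and aminomethylcoumarine absorbance was followed under pseudo-first-order conditions ([I]0>>[E]0) with under 10% substrate conversion. Progress curves were fitted to the integrated rate equation to give kobs. kapp is the slope of kobs versus [I]0 and depends on substrate concentration.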

T2 sequence (Q9Y5K2 31-254): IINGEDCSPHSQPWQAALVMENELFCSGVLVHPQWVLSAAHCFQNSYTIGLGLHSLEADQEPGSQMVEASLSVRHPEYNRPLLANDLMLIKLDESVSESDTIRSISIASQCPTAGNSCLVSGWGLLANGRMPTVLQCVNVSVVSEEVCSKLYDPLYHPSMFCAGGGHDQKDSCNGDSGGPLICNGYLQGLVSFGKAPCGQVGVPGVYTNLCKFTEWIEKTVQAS

Compound | pIC50 (KLK8 (human)) | kapp KLK4 (KLK4) [M⁻¹ s⁻¹] | Irreversible (KLK4) (KLK4)
COCCOCCOC(=O)NC(c1ccc(NC(=N)N)cc1)P(=O)(Oc1ccccc1)Oc1ccccc1.O=C(O)C(F)(F)F (stereo not drawn) [Compound 28, 2-(2-methoxyethoxy)ethyl((diphenoxyphosphoryl)(4-guanidinophenyl)methyl) carbamate 2,2,2-trifluoroacetate] | 3.60 to 5.00 | 34000 | Yes/
N=C(N)Nc1ccc(C(NC(=O)OCCOc2ccccc2)P(=O)(Oc2ccccc2)Oc2ccccc2)cc1.O=C(O)C(F)(F)F (stereo not drawn) [Compound 30, 2-phenoxyethyl((diphenoxyphosphoryl)(4-guanidinophenyl)methyl)carbamate 2,2,2-trifluoroacetate] | 3.60 to 5.00 | 15000 | Yes/
